# Assays:
# [1] = tested on: bile duct ligated (BDL) rats; assay: Bile duct ligated (BDL) rats: serum chemistry, liver histology and liver fibrosis marker mRNA; type: in vivo, rat; details: for level of Collagen I mRNA in liver / level of alpha SMA mRNA in liver: compared to sham operated rats (p<0.05)
# Description: A study of the effects of an FXR agonist (GW4064) on the livers of bile duct ligated (BDL) rats was carried out. This study was initially devised to examine the effects of FXR agonist on non-fibrotic liver damage due to cholestosis. The present researchers additionally went on to examine samples from these experiments for markers of liver fibrosis.
# Male Sprague-Dawley rats (approximately 300 grams) were obtained from Charles River Laboratories Inc (Raleigh, N.C.) and were maintained on a 12 hour light/12 hour dark light cycle. Animals were anesthetized by the administration of 2-3% isoflurane. Laparotomy was performed under sterile technique and the liver and duodenum gently displaced to reveal the common bile duct. The bile duct was separated from the surrounding tissue and two ligatures of 4-0 Ethilon were placed around it. The bile duct was clamped between the two ligatures with an aneurysm clamp and the ligatures drawn tight. An additional ligature was placed proximal to the first (near the liver). The clamp was removed and the bile duct severed between the ligatures. The muscle wall was closed with 4-0 Vicryl and the skin closed with staples. Sham controls underwent laparotomy, but the bile ducts were not ligated or transected. Animals were allowed food and water ad libitum throughout the study period. Animals were anesthetized with 2-3% isoflurane and sacrificed by cardiac puncture.
# Twenty-four hours after surgery, groups of rats (n=6-8) received intraperitoneal injections once daily for four days, of either (a) 5 ml/kg corn oil (vehicle); (b) 30 mg/kg GW4064 in corn oil; or (c) 15 mg/kg TUDCA in corn oil (taurine-conjugated ursodeoxycholic acid, used clinically to treat cholestosis). Sham operated animals received intraperitoneal injections of 5 ml/kg corn oil vehicle 24 hours after sham operation. Four hours after the last dose on day four, blood and livers were collected.
# Serum activities of alanine aminotransferase (ALT), asparate aminotransferase (AST), sorbital dehydrogenase (SDH), y-glutamyl transferase (GGT), lactate dehydrogenase (LDH), alkaline phosphatase (ALP) and total bilirubin were determined. Serum bile acids (BILEA) were determined using a commercially available assay (Sigma Chemical Co., St Louis, Mo.).
# In humans, liver fibrosis secondary to cholestatic disease is known to occur clinically. Experimentally, bile duct ligation in rats as a model of cholestosis is also known to cause liver fibrosis. In view of this, the present researchers additionally examined the BDL rat liver tissue for markers of liver fibrosis. Levels of Smooth Muscle Actin (SMA) mRNA, Collagen I mRNA, and TGFbeta1 mRNA were measured; results are graphed in FIG. 1a-1c where white bars=sham operated rats; black bars=vehicle treated BDL rats; striped bars=GW4064 treated BDL rats; and dotted bars=TUDCA treated BDL rats.
# [2] = tested on: rat hepatic stellate cells; assay: In vitro stellate cell activation (RTQ-PCR of SMA, collagen, fibronectin mRNA); type: cell-based
# Description: Rat hepatic stellate cells were isolated from male CRL:CD(SD)IGS® rats (Charles River Laboratories) as described previously. Cells were plated into six well plates at a density of 1×10^6 cells/well in DMEM-F12 media with 20% FCS. Twenty-four hours after plating, the media was replaced with media containing 0.1% DMSO (vehicle control) or 10 uM GW4064 with 0.1% DMSO. Following 2, 4, 6 or 8 days of treatment, total RNA was extracted from the cells using TRIzol reagent (Invitrogen) according to the manufacturer's directions. The RNA was treated with DNase I (Ambion, Austin, Tex.) at 37° C. for 30 min, followed by inactivation at 75° C. for 5 min. RNA was then quantitated using the RiboGreen RNA quantitation kit (Molecular Probes, Eugene, Oreg.). RNA expression was measured by RTQ-PCR using an ABI PRISM 7700 or 7900 Sequence Detection System (PE Applied Biosystems, Foster City, Calif.). For analysis, gene expression was normalized to 18S RNA. Follow-up studies were conducted using the same study design, except for a lower dose of GW4064 (3 uM). In the vehicle control group, SMA, collagen and fibronectin peaked at six days of culture; collagen and fibronectin expression began to decline following eight days in culture (FIGS. 4A-4C, white bars). […] (FIGS. 4a-4c, shaded bars; asterisk indicates p<0.05 compared to the vehicle treatment at the indicated timepoint).
# [3] = tested on: rats treated with carbon tetrachloride (CCl4); assay: Acute liver fibrosis in vivo model (single dose CCl4); design: species or system rat
# Description: Male CRL:CD(SD)IGS® rats (Charles River Laboratories) weighing 250-280 g were randomized into three groups of 5-6 rats per group. On day 1, rats in Group 1 (Control) were given a single intraperitoneal (ip) injection of corn oil (5 ml/kg). Rats in Groups 2 and 3 were given a single ip injection of 30% carbon tetrachloride (CCl4) in corn oil (5 ml/kg). Beginning four hours after the initial ip injections and continuing for four days, rats in Group 1 (Control) and Group 2 (CCl4) were given vehicle (20% Encapsin; Cerestar Inc., IN) by oral gavage twice daily. Beginning four hours after the initial ip injections and continuing for four days, rats in Group 3 (CCl4+GW4064) were given 30 mg/kg GW4064 in vehicle by oral gavage, twice daily for four days.
# Four hours after the final oral dose on day four, rats were sacrificed under deep anesthesia and blood and livers were collected. A portion of liver from each rat was fixed in 10% phosphate-buffered formalin (pH 7.4). The remaining livers were snap frozen in liquid nitrogen and stored at −80° C. prior to RNA extraction.
# Histopathology: The tissues were processed by standard histological techniques. Liver sections were stained with hematoxylin and eosin (H&E) using standard protocols and examined by light microscopy for necrosis and other structural changes. Immunohistochemistry was used to visualize α-smooth muscle actin (DAKO Corporation, CA) according to the manufacturer's instructions. Sirius Red (Sigma, St Louis, Mo.) was used to visualize collagen according to the manufacturer's instructions.
# (§1) Reverse Transcription Quantitative Polymerase Chain Reaction (RTQ-PCR). Total RNA was extracted from rat liver using TRIzol reagent (Invitrogen) according to the manufacturer's directions. The RNA was treated with DNase I (Ambion, Austin, Tex.) at 37° C. for 30 min, followed by inactivation at 75° C. for 5 min. RNA was then quantitated using the RiboGreen RNA quantitation kit (Molecular Probes, Eugene, Oreg.). RNA expression was measured by RTQ-PCR using an ABI PRISM 7700 or 7900 Sequence Detection System (PE Applied Biosystems, Foster City, Calif.).
# (§2) Statistical Analysis: All data were analyzed by one-way analysis of variance (ANOVA) followed by Duncan's multiple range test. The 0.05 level of probability was used as the criteria of significance.
# [4] = tested on: rats treated with carbon tetrachloride (CCl4); assay: Chronic liver fibrosis in vivo model (twice weekly CCl4 up to eight weeks); design: species or system rat
# Description: Male CRL:CD(SD)IGS® rats (Charles River Laboratories) weighing 250-350 were randomized into 3 groups. All rats received twice weekly intraperitoneal (ip) injections of 20% carbon tetrachloride (CCl4) in corn oil (5 ml/kg) for the duration of the study. Two weeks after the initiation of the CCl4 injections, rats in Group 1 (CCL4+Vehicle) began receiving vehicle (6% Encapsin; Cerestar Inc., IN) twice daily, rats in Group 2 (CCL4+GW4064) began receiving 30 mg/kg GW4064 in vehicle twice daily, and rats in Group 3 (CCL4+Silymarin) began receiving silymarin in vehicle twice daily. (Silymarin reduces TGFb1 and collagen deposition in fibrotic rat liver (Jia et al., J Hepatol 2001 September; 35(3):392-8).
# Multiple rats from each group were sacrificed after each of four, six and eight weeks on study. Rats were also sacrificed following the two weeks of CCL4 exposure, prior to initiation of drug treatment, as well as five untreated Naive rats. An additional five untreated Naïve rats were also sacrificed at the eight week timepoint. Plasma, serum, kidneys and livers were collected for analysis. Histopathological, mRNA and serum markers of liver damage and liver fibrosis were examined.
# Histopathology: The tissues were processed by standard histological techniques. Liver sections were stained with hematoxylin and eosin (H&E) using standard protocols and examined by light microscopy for necrosis and other structural changes. Immunohistochemistry was used to visualize α-smooth muscle actin (Sigma, St Louis, Mo.) according to the manufacturer's instructions. Sirius Red (Sigma, St Louis, Mo.) was used to visualize collagen according to the manufacturer's instructions. Liver sections were stained with Masson's trichrome (Sigma, St Louis, Mo.) according to the manufacturer's instructions.
# as §1, with “from sections of” for “from”, “75°C.” for “75° C.”
# Serum Analysis: Serum TIMP1 (R&D Systems, Minneapolis, Minn.) levels were measured according to the manufacturer's directions.
# as §2
# human hepatocytes = details: compared to control cells; cited from earlier work
# [5] = 30 mg/kg GW4064 or 15 mg/kg TUDCA ip once daily for four days, compared to vehicle-treated BDL rats
# [6] = day four, compared to vehicle-treated BDL rats
# [7] = ip once daily for four days, compared to vehicle treated BDL rats
# [8] = 3 uM, eight days, compared to vehicle
# [9] = 3 uM, six days, compared to vehicle
# [10] = 10 uM, eighth day, compared to control group, normalized to 18S
# [11] = 10 uM, six days, compared to vehicle control group
# [12] = 30 mg/kg oral gavage twice daily for four days after single CCl4, compared to CCl4+V animals
# [13] = 30 mg/kg oral twice daily four days, compared to control
# [14] = 30 mg/kg oral twice daily four days, compared to group 2 (CCl4+vehicle), p<0.05
# [15] = twice daily from week 2, compared to CCl4+Vehicle rats
# [16] = twice daily from week 2, compared to CCl4+Vehicle rats, 8 week timepoint
smiles,measurement,setting,value
CC(C)c1onc(-c2c(Cl)cccc2Cl)c1COc1ccc(/C=C/c2cccc(C(=O)O)c2)c(Cl)c1 [GW4064],serum level of ALT,[1]; [5],reductions
same,serum level of LDH,[1]; [5],reductions
same,level of TGFb1 mRNA in liver,"[1]; day four, compared to BDL rats receiving vehicle or TUDCA",significantly reduced
same,level of Collagen I mRNA in liver,[1]; day four,significantly different
same,level of alpha SMA mRNA in liver,[1]; day four,significantly different
same,number of mitotic nuclei (liver histology),"[1]; day four, compared to vehicle treatment",reduced
same,bile duct proliferation (liver histology),[1]; [6],reduced bile duct proliferation
same,fatty cell degeneration (liver histology),[1]; [6],decreased fatty cell degeneration
same,liver necrotic lesions (histology),[1]; [6],qualitatively fewer and smaller necrotic lesions
same,serum bile acids,[1]; [7],did not significantly reduce
same,serum level of ALP,[1]; [7],did not significantly reduce
same,serum level of GGT,[1]; [7],did not significantly reduce
same,serum level of SDH,[1]; [7],did not significantly reduce
same,serum total bilirubin,[1]; [7],did not significantly reduce
same,serum level of AST,"[1]; ip once daily for four days, compared to vehicle-treated BDL rats",reductions
same,collagen mRNA,[2]; [8],not significantly different from vehicle
same,decrease of SMA mRNA,[2]; [8],40%
same,fibronectin mRNA,[2]; [8],not significantly different from vehicle
same,decrease of SMA mRNA,[2]; [9],55%
same,decrease of collagen mRNA,[2]; [9],31%
same,decrease of fibronectin mRNA,[2]; [9],28%
same,decrease of SMA mRNA,[2]; [10],84%
same,decrease of collagen mRNA,[2]; [10],51%
same,decrease of fibronectin mRNA,[2]; [10],79%
same,SMA mRNA,[2]; [11],decreased
same,fibronectin mRNA,[2]; [11],decreased
same,liver SMA (immunohistochemistry),[3]; [12],reduced SMA
same,liver collagen deposition (Sirius Red),[3]; [12],reduced collagen deposition
same,liver Collagen I mRNA,[3]; [13],not statistically different from control
same,liver SMA mRNA,[3]; [13],not statistically different from control
same,liver TGFb1 mRNA,[3]; [13],not statistically different from control
same,liver Collagen I mRNA,[3]; [14],significantly decreased
same,liver SMA mRNA,[3]; [14],significantly decreased
same,liver collagen deposition (Sirius Red),"[4]; twice daily from week 2 (GW4064 30 mg/kg), six and eight week timepoints, compared to CCl4+V animals",reduced collagen deposition
same,liver TGFb1 mRNA,[4]; [15],unchanged
same,reduction in liver SMA mRNA,[4]; [15],not statistically significant
same,liver Collagen I mRNA,[4]; [16],significant reductions
same,liver TIMP1 mRNA,[4]; [16],significant reductions
same,serum TIMP1,"[4]; twice daily from week 2, compared to CCl4+Vehicle treated rats at 8 weeks, p<0.05",significant reductions
same,expression of Fibroblast Growth Factor 19 (FGF19),human hepatocytes,increased
"C[C@H](CCC(=O)NCCS(=O)(=O)O)[C@H]1CC[C@H]2[C@@H]3[C@@H](O)C[C@@H]4C[C@H](O)CC[C@]4(C)[C@H]3CC[C@]12C [TUDCA, taurine-conjugated ursodeoxycholic acid, reference compound]",serum level of LDH,[1]; [5],significant decrease
same,level of Collagen I mRNA in liver,[1]; day four,significantly different
same,level of alpha SMA mRNA in liver,[1]; day four,significantly different
same,"liver sections, histology overall (necrosis, bile duct proliferation)","[1]; day four, compared to vehicle treated BDL rats",did not appear to differ substantially from vehicle treated BDL rats

# From patent US20110021475A1, “Compositions And Methods for Treatment Of Fibrosis” (priority 2003, published 2011)
